Test results published in patent US20160200734A1, “CARBOXYLIC ACID COMPOUNDS IN TREATMENT OF DIABETES MELLITUS” (FUJIAN HAIXI PHARMACEUTICALS CO., LTD., priority 2013, published 2016).

Biological target: T1, GPR40 (Homo sapiens, UniProt O14842)
T1 construct: expressed in transfected cells
Assay: GPR40 Activation Assay (Wash Free Fluo-8 Calcium Assay)
Format: cell-based
Details: HEK293 cells stably expressing GPR40; fluorescence intensity Ex=494 nm, Em=516 nm
Protocol: This test procedure substantially carried out in accordance with the HDB company's Wash Free Fluo-8 Calcium Assay Kits. HEK293 cells stably expressing GPR40 were selected in a media containing Neomycin/G418. The cells were plated at a concentration of 30 uL 15,000 cells per well in black 384-well clear bottom tissue culture treated plates. The cells were incubated for 24 h in a incubator with 5% CO2.
According to Wash Free Fluo-8 Calcium Assay Kits operating instruction, one component A was dissolved in 210 uL DMSO, one component B was dissolved in 2.4 mL component C. After a 200 mM probenecid solution was prepared, 40 μL component A, 400 μL component B, 200 μL 200 mM probenecid and […] component C were mixed to a 20 mL test solution.
After removal of medium from the black 384-well dear bottom tissue culture treated plates by centrifuge, the test solution was added at 30 uL/well and the plates were incubated for 60 mins at 37° C. All test compounds were diluted to appropriate concentrations in HBSS buffer. Compounds were added to the cells and the wells were read fluorescence intensity at Ex=494 nm, Em=516 nm and readings were taken for 2 mins with an interval of 1 s. The compounds dose-dependent curve and EC50 were obtained by the Graphpad Prism4 software.

T1 sequence (O14842 whole entry, species assumed): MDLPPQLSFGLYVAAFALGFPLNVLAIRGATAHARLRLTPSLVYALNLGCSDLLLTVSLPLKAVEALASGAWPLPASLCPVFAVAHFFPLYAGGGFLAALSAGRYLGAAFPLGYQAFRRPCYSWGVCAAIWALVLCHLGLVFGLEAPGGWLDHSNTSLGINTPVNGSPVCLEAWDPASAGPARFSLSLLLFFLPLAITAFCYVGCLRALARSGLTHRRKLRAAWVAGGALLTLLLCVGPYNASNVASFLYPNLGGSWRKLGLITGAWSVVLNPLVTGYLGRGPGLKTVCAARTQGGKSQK

EC50 [nM] | SMILES
878 | Cc1cc(OCCCS(C)(=O)=O)cc(C)c1-c1cccc2c1CCC2Oc1ccc2c(c1)SC[C@H]2CC(=O)O (stereo partly drawn) [Example 51, 2-((3S)-6-((4-(2,6-dimethyl-4-(3-(methylsulfonyl)propoxy)phenyl)-2,3-dihydro-1H-inden-1-yl)oxy)-2,3-dihydrobenzo[b]thiophen-3-yl)acetic acid]
1260 | CSCCCOc1cc(C)c(-c2cccc3c2CCC3Oc2ccc3c(c2)SC[C@H]3CC(=O)O)c(C)c1 (stereo partly drawn) [Example 52, 2-((3S)-6-((4-(2,6-dimethyl-4-(3-(metylthio)porpoxy)phenyl)-2,3-dihydro-1H-inden-1-yl)oxy)-2,3-dihydrobenzo[b]thiophen-3-yl)acetic acid]
997 | COCCCOc1cc(C)c(-c2cccc3c2CCC3Oc2ccc3c(c2)SC[C@H]3CC(=O)O)c(C)c1 (stereo partly drawn) [Example 53, 2-((3S)-6-((4-(4-(3-methoxypropoxy)-2,6-dlmethylphenyl)-2,3-dihydro-1H-inden-1-yl)oxy)-2,3-dihydrobenzo[b]thiophen-3-yl)acetic acid]
